Assay: Absorbance measurement of component (b) and derived sensitizing agent, 0.0001% by mass cyclohexane solution
Assay type: physicochemical
Method: The component (b) and the sensitizing agent derived from the component (b) are shown together in Table 2. With respect to each of the components (b) and the sensitizing agents derived from the components (b), a 0.0001% by mass cyclohexane solution thereof was prepared. The absorbance of the solution prepared thus was measured using cyclohexane as a reference solvent and a spectrophotometer (“V-670” available from JASCO Corporation).
The absorbance was evaluated to be: “transparent” in a case where the measurement value of the absorbance was less than 0.01 over the entire wavelength range of no less than 300 nm and no greater than 450 nm; and “absorbing” in a case where the measurement value of the absorbance was no less than 0.01 at at least one wavelength within the entire wavelength range of no less than 300 nm and no greater than 450 nm.

Row | Structure (SMILES) | Absorbance (300-450 nm) of (b) component
1 | COc1ccc(C(O)c2ccc(OC)cc2)cc1 [Example B-1, bis(4-methoxyphenyl)methanol] | transparent (the measurement value of the absorbance was less than 0.01 over the entire wavelength range of no less than 300 nm and no greater than 450 nm)
2 | COc1ccc(C(OC)(OC)c2ccc(OC)cc2)cc1 [Example B-2] | transparent (the measurement value of the absorbance was less than 0.01 over the entire wavelength range of no less than 300 nm and no greater than 450 nm)
